Results: PMC9671780 (Bioorganic Chemistry, 2022)
In brackets after ≈: the same amount, converted by molar mass.

Assays:
[1] = in vitro; conditions: African green monkey, Vero E6 Cytotoxicity (IC50), MTT
[2] = tested on: SARS-CoV-2; format: cell-based; conditions: for Antiviral Potency Index (API): ratio of % inhibition to that of remdesivir at 10 µM; for SARS-CoV-2 Antiviral Assay (%) inhibition of viral replication: 10 µM
[3] = molecular target: SARS-CoV-2 M^pro (Severe acute respiratory syndrome coronavirus 2, UniProt P0DTD1); experiment: biochemical; conditions: for IC50: IC50 against SARS-CoV-2 M^pro, Table 1 and text
[4] = tested on: Vero E6 cells; conditions: for IC50: read-out: Vero E6 Cytotoxicity (IC50), MTT
[5] = PBS solubility screening; format: physicochemical; conditions: for Solubility note: PBS; for solubility: phosphate-buffered saline, aqueous buffer, kinetic from dmso stock
[6] = tested on: IL-6; experiment: Carrageenan-induced paw edema in rats: serum IL-6; format: in vivo, Sprague Dawley Rat; conditions: male rats, 100 mg/kg, 6 h after carrageenan
[7] = Enzymatic metabolic stability; format: in vitro ADME
[8] = tested on: TNF-α; experiment: Carrageenan-induced paw edema in rats: serum TNF-α; format: in vivo, Sprague Dawley Rat; conditions: male rats, 100 mg/kg, 6 h after carrageenan

For `Cc1nn(-c2ccc(Cl)cc2)c2c1C(c1ccc(Cl)cc1)C(C#N)=C(N)O2` (stereo not drawn) [Compound 18, 6-Amino-1-(4-chlorophenyl)-4-(4-chlorophenyl)-3-methyl-1,4-dihydropyrano[2,3-c]pyrazole-5-carbonitrile], the IC50 [1] was 60.5 ± 4.6 µM, the “Antiviral Potency Index (API)” value [2] was 0.74 and the IC50 [3] was 12.8 ± 0.6 µM.
In the case of `Cc1nn(-c2ccc(Cl)cc2)c2c1C(c1ccc(Br)cc1)C(C#N)=C(N)O2` (stereo not drawn) [Compound 19, 6-Amino-4-(4-bromophenyl)-1-(4-chlorophenyl)-3-methyl-1,4-dihydropyrano[2,3-c]pyrazole-5-carbonitrile], the IC50 [1] is reported as 26.2 ± 20 µM, the “Antiviral Potency Index (API)” value [2] is reported as 0.45 and the IC50 [3] is reported as 30.9 ± 1.6 µM.
For `Cc1nn(-c2ccc(Cl)cc2)c2c1C(c1ccc(I)cc1)C(C#N)=C(N)O2` (stereo not drawn) [Compound 20, 6-Amino-1-(4-chlorophenyl)-4-(4-iodophenyl)-3-methyl-1,4-dihydropyrano[2,3-c]pyrazole-5-carbonitrile], the IC50 [1] was 103 ± 7.8 µM, the “Antiviral Potency Index (API)” value [2] was 0.62 and the IC50 [3] was 69.1 ± 3.5 µM.
In the case of `COc1ccc(C2C(C#N)=C(N)Oc3c2c(C)nn3-c2ccc(Cl)cc2)cc1` (stereo not drawn) [Compound 21, 6-Amino-1-(4-chlorophenyl)-4-(4-methoxyphenyl)-3-methyl-1,4-dihydropyrano[2,3-c]pyrazole-5-carbonitrile], the IC50 [1] is reported as 78.1 ± 5.9 µM, the “Antiviral Potency Index (API)” value [2] is reported as 0.49 and the IC50 [3] is reported as 24.6 ± 1.2 µM.
With `Cc1nn(-c2ccc(Cl)cc2)c2c1C(c1ccc(O)cc1)C(C#N)=C(N)O2` (stereo not drawn) [Compound 22, 6-Amino-1-(4-chlorophenyl)-4-(4-hydroxyphenyl)-3-methyl-1,4-dihydropyrano[2,3-c]pyrazole-5-carbonitrile] the IC50 [1] was > 60 µM, the “Mode of binding from kinetic analysis” value [3] was “reversibly and non-competitively with non-covalent interactions” and the IC50 [4] was 67.7 ± 5.2 µM.
For `Cc1nn(-c2ccc(Cl)cc2)c2c1C(c1ccc([N+](=O)[O-])cc1)C(C#N)=C(N)O2` (stereo not drawn) [Compound 23, 6-Amino-1-(4-chlorophenyl)-4-(4-nitrophenyl)-3-methyl-1,4-dihydropyrano[2,3-c]pyrazole-5-carbonitrile], the IC50 [1] was 113 ± 8.6 µM, the “Antiviral Potency Index (API)” value [2] was 0.64 and the IC50 [3] was 9.5 ± 0.51 µM.
For `Cc1nn(-c2ccc(Cl)cc2)c2c1C(c1ccc(-c3ccccc3)cc1)C(C#N)=C(N)O2` (stereo not drawn) [Compound 24, 4-([1,1′-Biphenyl]-4-yl)-6-amino-1-(4-chlorophenyl)-3-methyl-1,4-dihydropyrano[2,3-c]pyrazole-5-carbonitrile], the IC50 [1] was 60.7 ± 4.6 µM, the “Antiviral Potency Index (API)” value [2] was 0.54 and the IC50 [3] was 39.8 ± 2.2 µM.
In the case of `Cc1nn(-c2ccc(Cl)cc2)c2c1C(c1ccc(F)cc1F)C(C#N)=C(N)O2` (stereo not drawn) [Compound 25, 6-Amino-1-(4-chlorophenyl)-4-(2,4-difluorophenyl)-3-methyl-1,4-dihydropyrano[2,3-c]pyrazole-5-carbonitrile], the IC50 [1] is reported as 47.6 ± 3.6 µM, the “Antiviral Potency Index (API)” value [2] is reported as 0.52 and the IC50 [3] is reported as 192 ± 9.8 µM.
In the case of `Cc1nn(-c2ccc(Cl)cc2)c2c1C(c1cccc(Cl)c1Cl)C(C#N)=C(N)O2` (stereo not drawn) [Compound 26, 6-Amino-1-(4-chlorophenyl)-4-(2,3-dichlorophenyl)-3-methyl-1,4-dihydropyrano[2,3-c]pyrazole-5-carbonitrile], the IC50 [1] is reported as 34.8 ± 2.7 µM.
With `Cc1nn(-c2ccc(Cl)cc2)c2c1C(c1ccc(Cl)cc1Cl)C(C#N)=C(N)O2` (stereo not drawn) [Compound 27, 6-Amino-1-(4-chlorophenyl)-4-(2,4-dichlorophenyl)-3-methyl-1,4-dihydropyrano[2,3-c]pyrazole-5-carbonitrile] the Solubility note [5] was “Moderate aqueous solubility”, the solubility [5] was 22.4 µM (≈ 9.67 µg/mL) and the “Serum level of IL-6” value [6] was 64 pg/mL. The Metabolic rate [7] was “intermediate clearance rate”, the microsomal CLint [7] was 54.6 µL/min/mg and the half-life ([7]; Intrinsic half-life (t1/2)) was > 2 h. For the same compound, the half-life ([7]; Mean t1/2) was 2.23 h, the “Serum level of TNF-α” value [8] was 385 pg/mL and the IC50 [1] was > 60 µM. For the same compound, the “SARS-CoV-2 Antiviral Assay (%) inhibition of viral replication” value [2] was 91.23 ± 0.25%, the “Antiviral Potency Index (API)” value [2] was 0.98 and the “Mode of binding from kinetic analysis” value [3] was “reversibly and non-competitively with non-covalent interactions”. The IC50 [4] was 62 ± 4.7 µM.
Work on `Cc1nn(-c2ccc(Cl)cc2)c2c1C(c1cc(Cl)ccc1Cl)C(C#N)=C(N)O2` (stereo not drawn) [Compound 28, 6-Amino-1-(4-chlorophenyl)-4-(2,5-dichlorophenyl)-3-methyl-1,4-dihydropyrano[2,3-c]pyrazole-5-carbonitrile] yielded an IC50 [1] of 131 ± 10 µM.
In the case of `Cc1nn(-c2ccc(Cl)cc2)c2c1C(c1c(Cl)cccc1Cl)C(C#N)=C(N)O2` (stereo not drawn) [Compound 29, 6-Amino-1-(4-chlorophenyl)-4-(2,6-dichlorophenyl)-3-methyl-1,4-dihydropyrano[2,3-c]pyrazole-5-carbonitrile], the IC50 [1] is reported as 63.3 ± 4.8 µM, the “Antiviral Potency Index (API)” value [2] is reported as 0.50 and the IC50 [3] is reported as 44.6 µM.
For `Cc1nn(-c2ccc(Cl)cc2)c2c1C(c1ccc(Cl)c(Cl)c1)C(C#N)=C(N)O2` (stereo not drawn) [Compound 30, 6-Amino-1-(4-chlorophenyl)-4-(3,4-dichlorophenyl)-3-methyl-1,4-dihydropyrano[2,3-c]pyrazole-5-carbonitrile], the IC50 [1] was 66.5 ± 5.1 µM, the “SARS-CoV-2 Antiviral Assay (%) inhibition of viral replication” value [2] was 27.84 ± 0.14% and the “Antiviral Potency Index (API)” value [2] was 0.30.
With `CCOc1ccc(C2C(C#N)=C(N)Oc3c2c(C)nn3-c2ccc(Cl)cc2)cc1` (stereo not drawn) [Compound 31, 6-Amino-1-(4-chlorophenyl)-4-(4-ethoxyphenyl)-3-methyl-1,4-dihydropyrano[2,3-c]pyrazole-5-carbonitrile] the IC50 [1] was 18.1 ± 1.4 µM, the “Antiviral Potency Index (API)” value [2] was 0.81 and the IC50 [3] was 4.6 ± 0.25 µM.
Compound `COc1cc(C2C(C#N)=C(N)Oc3c2c(C)nn3-c2ccc(Cl)cc2)ccc1O` (stereo not drawn) [Compound 32, 6-Amino-1-(4-chlorophenyl)-4-(4-hydroxy-3-methoxyphenyl)-3-methyl-1,4-dihydropyrano[2,3-c]pyrazole-5-carbonitrile] has an IC50 [1] of 45.7 ± 3.5 µM.
In the case of `COc1cc(C2C(C#N)=C(N)Oc3c2c(C)nn3-c2ccc(Cl)cc2)cc(OC)c1OC` (stereo not drawn) [Compound 33, 6-Amino-1-(4-chlorophenyl)-4-(3,4,5-trimethoxyphenyl)-3-methyl-1,4-dihydropyrano[2,3-c]pyrazole-5-carbonitrile], the IC50 [1] is reported as 86.2 ± 6.6 µM, the “Antiviral Potency Index (API)” value [2] is reported as 0.83 and the IC50 [3] is reported as 22.1 ± 1.1 µM.
With `CC(C)NCC(O)COc1cccc2ccccc12` (stereo not drawn) [Propranolol, reference compound] the half-life ([7]; Mean t1/2) was 2.4 h.
In the case of `CCC(CC)COC(=O)[C@H](C)N[P@](=O)(OC[C@H]1O[C@@](C#N)(c2ccc3c(N)ncnn23)[C@H](O)[C@@H]1O)Oc1ccccc1` [Remdesivir, reference compound], the IC50 [1] is reported as 61.8 ± 4.7 µM and the “Cytotoxicity to Vero E6 cells” value ([4]; at 60 μM) is reported as “no cytotoxicity”.
In the case of `CO[C@H]1/C=C/O[C@@]2(C)Oc3c(C)c(O)c4c(O)c(c(/C=N/N5CCN(C)CC5)c(O)c4c3C2=O)NC(=O)/C(C)=C\C=C\[C@H](C)[C@H](O)[C@@H](C)[C@@H](O)[C@@H](C)[C@H](OC(C)=O)[C@@H]1C` [Rifampicin, reference compound], the Solubility note [5] is reported as “Reference with good solubility” and the solubility [5] is reported as 179 µM (≈ 148 µg/mL).
